Assay results taken from article PMC4586312 (Nanomedicine : nanotechnology, biology, and medicine, 2015).

Experiments:
cathepsin B [1] = target: T1, cathepsin B (Homo sapiens, UniProt P07858); assay: fluorescence protease assay; format: biochemical
cathepsin B [2] = target: T1, cathepsin B; assay: fluorogenic substrate cleavage assay; format: biochemical

Compound | IC50 (cathepsin B [1]) | fluorogenic substrate cleavage assay (cathepsin B [2])
CC(C)C[C@H](NC(=O)OCc1ccccc1)C(=O)N[C@H](C=O)C[C@@H]1CCNC1=O [GC-373] | 9.67 nM | 
Cc1cc(=O)oc2cc(NC(=O)[C@H](CCCNC(=N)N)NC(=O)[C@H](CC(C)C)NC(=O)OCc3ccccc3)ccc12 [Z-Leu-Arg-AMC] |  | The cleavage at the site between arginine and AMC dye by cathepsin B resulted in the increase of fluorescence intensity
